Data on one molecule can be found in publication PMC5218480 (PLoS ONE, 2017).

The subject of this assay is MV-4-11 cells. Description: Gene expression microarray analysis (Affymetrix PrimeView) and GSEA. The conditions noted are these: ProbeSet 11728271_at; LIST B. More on the design: RFU PODN (11730768_x_at) / Fold change /veh PODN (11730768_x_at) / RFU LINC00158 (11744669_a_at) / Fold change /veh LINC00158 (11744669_a_at) / RFU DUSP10 (11751237_a_at) / Fold change /veh DUSP10 (11751237_a_at) / RFU ID3 (11757404_x_at) / Fold change /veh ID3 (11757404_x_at) / RFU PLEKHG5 (11737974_s_at) / Fold change /veh PLEKHG5 (11737974_s_at) / RFU LRRC4B (11730491_at) / Fold change /veh LRRC4B (11730491_at) / RFU GIMAP4 (11747438_a_at) / Fold change /veh GIMAP4 (11747438_a_at) / RFU KRT8 (11758183_x_at) / Fold change /veh KRT8 (11758183_x_at) / RFU CNN1 (11734310_a_at) / Fold change /veh CNN1 (11734310_a_at) / RFU VPS37D (11726825_at) / Fold change /veh VPS37D (11726825_at) / RFU C10orf10 (11716522_x_at) / Fold change /veh C10orf10 (11716522_x_at) / RFU KIR2DL2 /// KIR2DL4 /// KIR2DL5A /// KIR2DL5B /// KIR2DS1 /// KIR2DS2 /// KIR2DS3 /// KIR2DS4 /// KIR3DL3 /// KIR3DL3 /// KIR3DS1 (11738374_at) / Fold change /veh KIR2DL2 /// KIR2DL4 /// KIR2DL5A /// KIR2DL5B /// KIR2DS1 /// KIR2DS2 /// KIR2DS3 /// KIR2DS4 /// KIR3DL3 /// KIR3DL3 /// KIR3DS1 (11738374_at) / RFU C1QL1 (11718748_at) / Fold change /veh C1QL1 (11718748_at) / RFU TMPRSS4 (11747572_a_at) / Fold change /veh TMPRSS4 (11747572_a_at) / RFU HAMP (11756126_x_at) / Fold change /veh HAMP (11756126_x_at) / RFU RNFT2 (11725882_a_at) / Fold change /veh RNFT2 (11725882_a_at) / RFU NR4A2 (11747474_a_at) / Fold change /veh NR4A2 (11747474_a_at) / RFU ABCC12 (11746883_a_at) / Fold change /veh ABCC12 (11746883_a_at) / RFU TMEM136 (11760407_x_at) / Fold change /veh TMEM136 (11760407_x_at) / RFU CLDN22 /// WWC2 (11732394_at) / Fold change /veh CLDN22 /// WWC2 (11732394_at) / RFU HLA-DPB1 (11760878_x_at) / Fold change /veh HLA-DPB1 (11760878_x_at) / RFU SPINT1 (11716480_a_at) / Fold change /veh SPINT1 (11716480_a_at) / RFU GAP43 (11754022_s_at) / Fold change /veh GAP43 (11754022_s_at) / RFU A4GNT (11735810_at) / Fold change /veh A4GNT (11735810_at) / RFU PRB3 (11715151_x_at) / Fold change /veh PRB3 (11715151_x_at) / RFU TUBB4B (11761932_at) / Fold change /veh TUBB4B (11761932_at) / RFU CAPN14 (11732068_a_at) / Fold change /veh CAPN14 (11732068_a_at) / RFU TMCC2 (11721928_a_at) / Fold change /veh TMCC2 (11721928_a_at) / RFU IRGQ (11745062_a_at) / Fold change /veh IRGQ (11745062_a_at) / RFU FAM174B (11720279_a_at) / Fold change /veh FAM174B (11720279_a_at) / RFU TMPRSS4 (11748680_a_at) / Fold change /veh TMPRSS4 (11748680_a_at) / RFU FAM212B (11763350_a_at) / Fold change /veh FAM212B (11763350_a_at) / RFU PLEKHG5 (11743358_a_at) / Fold change /veh PLEKHG5 (11743358_a_at) / RFU ZSCAN30 (11745921_a_at) / Fold change /veh ZSCAN30 (11745921_a_at) / RFU CMKLR1 (11741424_a_at) / Fold change /veh CMKLR1 (11741424_a_at) / RFU LOC101060620 /// MAPK8IP1 (11723275_at) / Fold change /veh LOC101060620 /// MAPK8IP1 (11723275_at) / RFU SPTSSB (11747773_x_at) / Fold change /veh SPTSSB (11747773_x_at) / RFU PRSS12 (11739890_at) / Fold change /veh PRSS12 (11739890_at) / RFU BIN1 (11741810_x_at) / Fold change /veh BIN1 (11741810_x_at) / RFU WNT11 (11732464_a_at) / Fold change /veh WNT11 (11732464_a_at) / RFU C10orf10 (11716521_a_at) / Fold change /veh C10orf10 (11716521_a_at) / RFU C5orf56 (11738089_at) / Fold change /veh C5orf56 (11738089_at) / RFU CYB561 (11721691_x_at) / Fold change /veh CYB561 (11721691_x_at) / RFU ANKRD19P (11752326_a_at) / Fold change /veh ANKRD19P (11752326_a_at) / RFU OR2T12 /// OR2T33 /// OR2T8 (11738714_s_at) / Fold change /veh OR2T12 /// OR2T33 /// OR2T8 (11738714_s_at) / RFU VCAN (11748164_a_at) / Fold change /veh VCAN (11748164_a_at) / RFU JSRP1 (11732532_at) / Fold change /veh JSRP1 (11732532_at) / RFU KRTAP10-11 (11738290_x_at) / Fold change /veh KRTAP10-11 (11738290_x_at) / RFU MYO3A (11730013_a_at) / Fold change /veh MYO3A (11730013_a_at) / RFU EBF3 (11725865_a_at) / Fold change /veh EBF3 (11725865_a_at) / RFU CAMK2N1 (11719241_x_at) / Fold change /veh CAMK2N1 (11719241_x_at) / RFU C5orf56 (11738088_a_at) / Fold change /veh C5orf56 (11738088_a_at) / RFU OLFML3 (11715873_a_at) / Fold change /veh OLFML3 (11715873_a_at) / RFU LOC100653217 /// NTM (11731650_a_at) / Fold change /veh LOC100653217 /// NTM (11731650_a_at) / RFU MAPK11 (11762145_a_at) / Fold change /veh MAPK11 (11762145_a_at) / RFU FIZ1 (11724087_x_at) / Fold change /veh FIZ1 (11724087_x_at) / RFU OASL (11726364_x_at) / Fold change /veh OASL (11726364_x_at) / RFU SOX15 (11748057_x_at) / Fold change /veh SOX15 (11748057_x_at) / RFU CD79A (11719716_a_at) / Fold change /veh CD79A (11719716_a_at) / RFU HIST1H1D (11736915_at) / Fold change /veh HIST1H1D (11736915_at) / RFU CASKIN2 (11723855_a_at) / Fold change /veh CASKIN2 (11723855_a_at) / RFU LOC730098 (11760151_x_at) / Fold change /veh LOC730098 (11760151_x_at) / RFU OR4N2 (11742367_at) / Fold change /veh OR4N2 (11742367_at) / RFU PRRT2 (11749266_a_at) / Fold change /veh PRRT2 (11749266_a_at) / RFU SNX32 (11753110_a_at) / Fold change /veh SNX32 (11753110_a_at) / RFU CDHR5 (11726645_a_at) / Fold change /veh CDHR5 (11726645_a_at) / RFU RCAN1 (11760418_a_at) / Fold change /veh RCAN1 (11760418_a_at) / RFU FAM167A (11723789_a_at) / Fold change /veh FAM167A (11723789_a_at) / RFU FAM26E (11764081_at) / Fold change /veh FAM26E (11764081_at) / RFU ISYNA1 (11749810_s_at) / Fold change /veh ISYNA1 (11749810_s_at) / RFU ACY1 (11761880_at) / Fold change /veh ACY1 (11761880_at) / RFU 11764098_at / Fold change /veh 11764098_at / RFU SAMD14 (11745864_x_at) / Fold change /veh SAMD14 (11745864_x_at) / RFU NPB (11741838_a_at) / Fold change /veh NPB (11741838_a_at) / RFU TMPRSS6 (11731388_a_at) / Fold change /veh TMPRSS6 (11731388_a_at) / RFU KRTAP10-2 (11738614_at) / Fold change /veh KRTAP10-2 (11738614_at) / RFU ARHGAP8 /// PRR5-ARHGAP8 (11727945_x_at) / Fold change /veh ARHGAP8 /// PRR5-ARHGAP8 (11727945_x_at) / RFU KRTAP5-7 /// NADSYN1 (11734609_at) / Fold change /veh KRTAP5-7 /// NADSYN1 (11734609_at) / RFU RASL12 (11751679_a_at) / Fold change /veh RASL12 (11751679_a_at) / RFU CDKN2B (11736163_a_at) / Fold change /veh CDKN2B (11736163_a_at) / RFU PRF1 (11729649_at) / Fold change /veh PRF1 (11729649_at) / RFU, ZNF638 /// ZNF638-IT1 / Fold change vs veh, ZNF638 /// ZNF638-IT1 / RFU, PANK3 / Fold change vs veh, PANK3 / RFU, SH3YL1 / Fold change vs veh, SH3YL1 / RFU, ZEB2 / Fold change vs veh, ZEB2 / RFU, NRIP1 / Fold change vs veh, NRIP1 / RFU, PTTG1IP / Fold change vs veh, PTTG1IP / RFU, CAPN2 / Fold change vs veh, CAPN2 / RFU, MED14 / Fold change vs veh, MED14 / RFU, SNORA58 / Fold change vs veh, SNORA58 / RFU, C1orf63 / Fold change vs veh, C1orf63 / RFU, LRRFIP1 / Fold change vs veh, LRRFIP1 / RFU, NDUFAF7 / Fold change vs veh, NDUFAF7 / RFU, SLC12A2 / Fold change vs veh, SLC12A2 / RFU, IBTK / Fold change vs veh, IBTK / RFU, ESF1 / Fold change vs veh, ESF1 / Fold change vs veh, TMEM50B / RFU, TAOK1 / Fold change vs veh, TAOK1 / RFU, ACBD3 / Fold change vs veh, ACBD3 / RFU, TMA16 / Fold change vs veh, TMA16 / RFU, RWDD3 / Fold change vs veh, RWDD3 / RFU, BCAT1 / Fold change vs veh, BCAT1 / RFU, EDEM3 / Fold change vs veh, EDEM3 / RFU, TMEM33 / Fold change vs veh, TMEM33 / RFU, WDR75 / Fold change vs veh, WDR75 / RFU, AHCTF1 / Fold change vs veh, AHCTF1 / RFU, TFRC / Fold change vs veh, TFRC / RFU, ZDHHC17 / Fold change vs veh, ZDHHC17 / RFU, NOM1 / Fold change vs veh, NOM1 / RFU, ARL8B / Fold change vs veh, ARL8B / RFU, ZBTB11 / Fold change vs veh, ZBTB11 / RFU, TAMM41 / Fold change vs veh, TAMM41 / RFU, KIAA1704 /// LOC100996395 / Fold change vs veh, KIAA1704 /// LOC100996395 / RFU, ING1 / Fold change vs veh, ING1 / RFU, TRMT61B / Fold change vs veh, TRMT61B / RFU, FUBP3 / Fold change vs veh, FUBP3 / RFU, TP53 / Fold change vs veh, TP53 / RFU, TNKS2 / Fold change vs veh, TNKS2 / RFU, ZFP14 / Fold change vs veh, ZFP14 / RFU, ACTR2 / Fold change vs veh, ACTR2 / RFU, PPP3R1 / Fold change vs veh, PPP3R1 / RFU, PIK3R1 / Fold change vs veh, PIK3R1 / RFU, HNRNPA1 / Fold change vs veh, HNRNPA1 / RFU, RNF170 / Fold change vs veh, RNF170 / RFU, ZNF28 / Fold change vs veh, ZNF28 / RFU, RNGTT / Fold change vs veh, RNGTT / RFU, OGT / Fold change vs veh, OGT / RFU, BRD1 / Fold change vs veh, BRD1 / RFU, MARS / Fold change vs veh, MARS / RFU, ZNF655 / Fold change vs veh, ZNF655 / RFU, FAHD1 / Fold change vs veh, FAHD1 / RFU, BDP1 / Fold change vs veh, BDP1 / RFU, LRRCC1 / Fold change vs veh, LRRCC1 / RFU, ARID1A / Fold change vs veh, ARID1A / RFU, ZNF146 / Fold change vs veh, ZNF146 / RFU, ZNF330 / Fold change vs veh, ZNF330 / RFU, GPN3 / Fold change vs veh, GPN3 / RFU, C9orf123 / Fold change vs veh, C9orf123 / RFU, N4BP2L2 / Fold change vs veh, N4BP2L2 / RFU, ARFIP1 / Fold change vs veh, ARFIP1 / RFU, FAM179B / Fold change vs veh, FAM179B / RFU, BCL10 / Fold change vs veh, BCL10 / RFU, UHRF1BP1L / Fold change vs veh, UHRF1BP1L / RFU, BET1 / Fold change vs veh, BET1 / RFU, CNOT2 / Fold change vs veh, CNOT2 / RFU, ZNF268 / Fold change vs veh, ZNF268 / Fold change vs veh, ZNF507 / RFU, DGCR2 / Fold change vs veh, DGCR2 / RFU, WDSUB1 / Fold change vs veh, WDSUB1 / Fold change vs veh, HSP90B1 /// MIR3652 / RFU, ADSS / Fold change vs veh, ADSS / RFU, GK / Fold change vs veh, GK / RFU, ZNF148 / Fold change vs veh, ZNF148 / RFU, TAF9 / Fold change vs veh, TAF9 / RFU, SLC1A5 / Fold change vs veh, SLC1A5 / RFU, SLMO2 / Fold change vs veh, SLMO2 / RFU, ABCC4 / Fold change vs veh, ABCC4 / RFU, LOC101060439 /// RAP1B / Fold change vs veh, LOC101060439 /// RAP1B / RFU, RFX7 / Fold change vs veh, RFX7 / RFU, GTPBP10 / Fold change vs veh, GTPBP10 / RFU, CNEP1R1 / Fold change vs veh, CNEP1R1 / RFU, BIVM-ERCC5 /// ERCC5 / Fold change vs veh, BIVM-ERCC5 /// ERCC5 / RFU, ILF3 / Fold change vs veh, ILF3 / RFU 11762660_at / Fold change /veh 11762660_at / RFU VCAN (11757783_s_at) / Fold change /veh VCAN (11757783_s_at) / RFU DDX43 (11728927_at) / Fold change /veh DDX43 (11728927_at) / RFU KRT8 (11758188_x_at) / Fold change /veh KRT8 (11758188_x_at) / RFU NKD1 (11759106_at) / Fold change /veh NKD1 (11759106_at) / RFU SRD5A1 (11742802_a_at) / Fold change /veh SRD5A1 (11742802_a_at) / RFU TPSAB1 /// TPSB2 (11721975_s_at) / Fold change /veh TPSAB1 /// TPSB2 (11721975_s_at) / RFU GSTM3 (11746129_a_at) / Fold change /veh GSTM3 (11746129_a_at) / RFU IL23R (11737362_x_at) / Fold change /veh IL23R (11737362_x_at) / RFU TMEM51 (11727254_a_at) / Fold change /veh TMEM51 (11727254_a_at) / RFU PIWIL2 (11732686_x_at) / Fold change /veh PIWIL2 (11732686_x_at) / RFU ORM1 (11744905_x_at) / Fold change /veh ORM1 (11744905_x_at) / RFU CCDC152 (11743942_at) / Fold change /veh CCDC152 (11743942_at) / RFU ECM1 (11717891_a_at) / Fold change /veh ECM1 (11717891_a_at) / RFU IL23R (11748794_a_at) / Fold change /veh IL23R (11748794_a_at) / RFU TNFAIP8L3 (11732012_x_at) / Fold change /veh TNFAIP8L3 (11732012_x_at) / RFU MBOAT4 (11741988_at) / Fold change /veh MBOAT4 (11741988_at) / RFU 11764193_at / Fold change /veh 11764193_at / RFU TMEM53 (11763286_at) / Fold change /veh TMEM53 (11763286_at) / RFU MAGEB2 (11727129_at) / Fold change /veh MAGEB2 (11727129_at) / RFU TMEM200A (11744735_a_at) / Fold change /veh TMEM200A (11744735_a_at) / RFU CCDC152 (11751479_a_at) / Fold change /veh CCDC152 (11751479_a_at) / RFU FAM211A (11726209_a_at) / Fold change /veh FAM211A (11726209_a_at) / RFU RGS16 (11746705_a_at) / Fold change /veh RGS16 (11746705_a_at) / RFU VCAN (11755009_s_at) / Fold change /veh VCAN (11755009_s_at) / RFU RHOB (11743442_s_at) / Fold change /veh RHOB (11743442_s_at) / RFU RGS16 (11720943_a_at) / Fold change /veh RGS16 (11720943_a_at) / RFU RGS16 (11720944_at) / Fold change /veh RGS16 (11720944_at) / RFU, VPS4B / Fold change vs veh, VPS4B / RFU, CREB1 / Fold change vs veh, CREB1 / RFU, DNAJC13 / Fold change vs veh, DNAJC13 / RFU, GNAQ / Fold change vs veh, GNAQ / RFU, CDK5R1 / Fold change vs veh, CDK5R1 / RFU, ZRANB3 / Fold change vs veh, ZRANB3 / RFU, CUL4A / Fold change vs veh, CUL4A / RFU, CCNY / Fold change vs veh, CCNY / RFU, UFL1 / Fold change vs veh, UFL1 / RFU, COG3 / Fold change vs veh, COG3 / RFU, DIAPH2 / Fold change vs veh, DIAPH2 / RFU, SKA2 / Fold change vs veh, SKA2 / RFU, AFF3 / Fold change vs veh, AFF3 / RFU, LMF1 / Fold change vs veh, LMF1 / RFU, IPO11 / Fold change vs veh, IPO11 / RFU, DFFB / Fold change vs veh, DFFB / RFU, FOXP1 / Fold change vs veh, FOXP1 / RFU, CARD8 / Fold change vs veh, CARD8 / RFU, STRN3 / Fold change vs veh, STRN3 / RFU, ADK / Fold change vs veh, ADK / RFU, RASSF2 / Fold change vs veh, RASSF2 / RFU, WIPF1 / Fold change vs veh, WIPF1 / RFU, LARP1B / Fold change vs veh, LARP1B / RFU, RASA1 / Fold change vs veh, RASA1 / RFU, RB1 / Fold change vs veh, RB1 / RFU, PPFIA1 / Fold change vs veh, PPFIA1 / RFU, MAT2A / Fold change vs veh, MAT2A / RFU, CCT5 / Fold change vs veh, CCT5 / RFU, WDR92 / Fold change vs veh, WDR92 / RFU, CUX1 / Fold change vs veh, CUX1 / RFU, TTC7A / Fold change vs veh, TTC7A / RFU, TMEM135 / Fold change vs veh, TMEM135 / RFU, DEPTOR / Fold change vs veh, DEPTOR / RFU, CPM / Fold change vs veh, CPM / RFU, DNAJB6 / Fold change vs veh, DNAJB6 / RFU, CACNA2D3 / Fold change vs veh, CACNA2D3 / RFU, DTX4 / Fold change vs veh, DTX4 / RFU, TFCP2 / Fold change vs veh, TFCP2 / RFU, GMCL1 /// GMCL1P1 / Fold change vs veh, GMCL1 /// GMCL1P1 / RFU, AEBP2 / Fold change vs veh, AEBP2 / RFU, SNHG1 /// SNORD22 /// SNORD25 /// SNORD26 /// SNORD27 /// SNORD28 /// SNORD29 /// SNORD31 / Fold change vs veh, SNHG1 /// SNORD22 /// SNORD25 /// SNORD26 /// SNORD27 /// SNORD28 /// SNORD29 /// SNORD31 / Fold change (Aza/veh), C12orf56 (ProbeSet 11735607_a_at) / Fold change (ACY-1035/veh), C12orf56 (ProbeSet 11735607_a_at) / Fold change (Aza/veh), FGFR1OP (ProbeSet 11751329_s_at) / Fold change (ACY-1035/veh), FGFR1OP (ProbeSet 11751329_s_at) / Fold change (Aza/veh), VPS36 (ProbeSet 11739960_a_at) / Fold change (ACY-1035/veh), VPS36 (ProbeSet 11739960_a_at) / RFU SYPL1 (11715823_x_at) / Fold change /veh SYPL1 (11715823_x_at) / RFU IGFBP7 (11715501_s_at) / Fold change /veh IGFBP7 (11715501_s_at) / RFU REEP3 (11722064_at) / Fold change /veh REEP3 (11722064_at) / RFU IGLL1 (11728026_x_at) / Fold change /veh IGLL1 (11728026_x_at): dose or concentration left out as unconfirmed. Format: cell-based, human.

Each structure is given as a SMILES string.

For `Nc1ccc(-c2cccs2)cc1NC(=O)c1ccc2c(c1)cc(C1CC1)n2CCN1CCOCC1` [ACY-1035], the “RFU, ZNF330” value is recorded as 663.85 RFU.
